Consider one molecule from patent publication US9714245B2, “Carboline compounds usable in the treatment of neurodegenerative diseases” (ALZPROTECT, priority 2013, dated 2017).

One experiment concerns CTFα. Nature of the experiment: In vivo acute treatment, CTFα in brain tissue. The conditions noted are these: acute p.o. 24 h. Also noted: species or system C57Bl6 mice. How it is done: Female C57Bl6 mice of 4 month-old were treated p.o. (gavage) with either vehicle (control) or drug at 3; 6; 12.5 and 25 mg/kg (n=6 per group) for 24 h. The product was administered with a disposable Rodent Feeding Tube ECIMED Ref#V0104030 (4 mm×30 mm). After 24 h, mice were sacrificed and their troncal blood was collected and stored at 4° C. Brains were immediately removed to dissect the Frontal Cortex, the Cortex around the Hippocampus and the Hippocampus. These areas were stored at −80° C. until use. Blood was then centrifuged at 2100×g for 5 min. Resulting plasma was used to quantify the circulating drug and brain tissues were used for biochemical determinations (PFC: prefrontal cortex and HIP: hippocampus).

Experiment [1] has as its target T1, HIS-tagged valosin-containing protein/p97 (VCP/p97) (Homo sapiens, UniProt P55072).
T1 construct: purchased TebuBio
Nature of the experiment: VCP interaction assay (competition with biotinylated probe 4.7). It is filed as binding. The conditions noted are these: compound 60 μM against biotinylated probe 4.7 20 μM. As for the experimental part:
Physical interaction between HIS-tagged valosin-containing protein/p97 (VCP/p97) (TebuBio) and biotinylated probe 4.7 was investigated by Enzyme-Linked Assay (ELA) based on HIS-Select® High Sensitivity Nickel coated plates, used following manufacturer's recommendations (Sigma Aldrich). Other chemical compounds were tested in competition with the biotinylated probe 4.7 in this system. Briefly, nickel beads were incubated overnight at 4° C. with 2% casein blocking solution. After a three-time rinse with wash buffer (0.05% Tween20 in phosphate buffer saline), HIS-tagged VCP/p97 protein (5 μg/ml in PBS) was incubated with nickel beads for 90 min at 25° C. Then, the plate was washed three times. Chemical compounds (60 μM) were incubated 10 min at 25° C. before addition of biotinylated probe 4.7 (20 μM) 30 min at 25° C. After five washes, streptavidin-peroxidase (2 μg/ml) was added during 1 h at 25° C., followed by the peroxidase substrate addition 30 min at RT. Reaction was stopped with 0.5M H2SO4 solution and the optical density was read at 450 nm using a microplate reader (VICTOR X4 Wallac, 2030-0040, PerkinElmer). Competition efficiency was quantified by the loss of signal compared to the control condition.

T1 sequence (P55072 whole entry): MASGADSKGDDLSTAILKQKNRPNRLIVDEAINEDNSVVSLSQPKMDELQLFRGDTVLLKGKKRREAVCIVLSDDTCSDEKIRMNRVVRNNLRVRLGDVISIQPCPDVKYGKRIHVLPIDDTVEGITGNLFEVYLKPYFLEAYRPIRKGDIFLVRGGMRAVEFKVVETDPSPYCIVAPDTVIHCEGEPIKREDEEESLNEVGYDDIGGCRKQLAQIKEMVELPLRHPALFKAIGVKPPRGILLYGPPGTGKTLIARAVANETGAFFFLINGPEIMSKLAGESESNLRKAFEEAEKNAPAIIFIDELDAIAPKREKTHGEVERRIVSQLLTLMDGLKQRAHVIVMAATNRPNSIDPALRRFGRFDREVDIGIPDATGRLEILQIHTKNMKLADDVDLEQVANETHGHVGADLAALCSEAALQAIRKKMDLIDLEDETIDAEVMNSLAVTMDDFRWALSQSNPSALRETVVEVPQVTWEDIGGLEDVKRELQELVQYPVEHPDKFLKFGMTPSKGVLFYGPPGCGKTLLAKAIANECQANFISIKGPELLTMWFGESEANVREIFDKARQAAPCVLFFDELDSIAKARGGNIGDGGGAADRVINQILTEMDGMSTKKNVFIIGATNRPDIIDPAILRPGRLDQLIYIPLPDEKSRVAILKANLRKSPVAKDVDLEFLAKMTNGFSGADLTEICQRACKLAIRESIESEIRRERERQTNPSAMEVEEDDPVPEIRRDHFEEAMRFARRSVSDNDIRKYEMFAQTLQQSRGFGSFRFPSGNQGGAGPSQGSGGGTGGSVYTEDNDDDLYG

As to `CC(C)CN(CCCN1CCN(CCCN2CCc3[nH]c4ccc(F)cc4c3C2)CC1)CC(C)C` [Compound 3.1d, N,N-diisobutyl-3-(4-(3-(8-fluoro-1,3,4,5-tetrahydro-1H-pyrido[4,3-b]indol-2-yl)propyl)piperazin-1-yl)propylamine], the “HIP CTFα (6-12.5 mg/kg), first line” value in the experiment on CTFα (hippocampus, 6 mg/kg (first of the two doses in the head)) is given as 110. The “HIP CTFα (6-12.5 mg/kg), second line” value in the experiment with CTFα (hippocampus, 12.5 mg/kg (second of the two doses in the head)) is given as 115. Besides, in the experiment on CTFα (prefrontal cortex, 6 mg/kg (first of the two doses in the head)), the “PFC CTFα (6-12.5 mg/kg), first line” value turned out to be 90. The “PFC CTFα (6-12.5 mg/kg), second line” value in the experiment with CTFα (prefrontal cortex, 12.5 mg/kg (second of the two doses in the head)) is reported as 90. Moreover, the “VCP (competition efficiency, loss of signal compared to the control)” value in experiment [1] amounted to 96%.
